Reference: article PMC7827085 (Pharmaceutics, 2021)

Tests used:
ABCC1/MRP1 = ABCC1/MRP1 (Homo sapiens, UniProt P33527); conditions: Sf9/ABCC1 membrane vesicles
[1] = in patients; lopinavir may reach, ritonavir may peak; ref FDA label 021226s018lbl / EMA Kaletra EPAR scientific discussion; cited from earlier work

Chain of ABCC1/MRP1 (P33527 whole entry): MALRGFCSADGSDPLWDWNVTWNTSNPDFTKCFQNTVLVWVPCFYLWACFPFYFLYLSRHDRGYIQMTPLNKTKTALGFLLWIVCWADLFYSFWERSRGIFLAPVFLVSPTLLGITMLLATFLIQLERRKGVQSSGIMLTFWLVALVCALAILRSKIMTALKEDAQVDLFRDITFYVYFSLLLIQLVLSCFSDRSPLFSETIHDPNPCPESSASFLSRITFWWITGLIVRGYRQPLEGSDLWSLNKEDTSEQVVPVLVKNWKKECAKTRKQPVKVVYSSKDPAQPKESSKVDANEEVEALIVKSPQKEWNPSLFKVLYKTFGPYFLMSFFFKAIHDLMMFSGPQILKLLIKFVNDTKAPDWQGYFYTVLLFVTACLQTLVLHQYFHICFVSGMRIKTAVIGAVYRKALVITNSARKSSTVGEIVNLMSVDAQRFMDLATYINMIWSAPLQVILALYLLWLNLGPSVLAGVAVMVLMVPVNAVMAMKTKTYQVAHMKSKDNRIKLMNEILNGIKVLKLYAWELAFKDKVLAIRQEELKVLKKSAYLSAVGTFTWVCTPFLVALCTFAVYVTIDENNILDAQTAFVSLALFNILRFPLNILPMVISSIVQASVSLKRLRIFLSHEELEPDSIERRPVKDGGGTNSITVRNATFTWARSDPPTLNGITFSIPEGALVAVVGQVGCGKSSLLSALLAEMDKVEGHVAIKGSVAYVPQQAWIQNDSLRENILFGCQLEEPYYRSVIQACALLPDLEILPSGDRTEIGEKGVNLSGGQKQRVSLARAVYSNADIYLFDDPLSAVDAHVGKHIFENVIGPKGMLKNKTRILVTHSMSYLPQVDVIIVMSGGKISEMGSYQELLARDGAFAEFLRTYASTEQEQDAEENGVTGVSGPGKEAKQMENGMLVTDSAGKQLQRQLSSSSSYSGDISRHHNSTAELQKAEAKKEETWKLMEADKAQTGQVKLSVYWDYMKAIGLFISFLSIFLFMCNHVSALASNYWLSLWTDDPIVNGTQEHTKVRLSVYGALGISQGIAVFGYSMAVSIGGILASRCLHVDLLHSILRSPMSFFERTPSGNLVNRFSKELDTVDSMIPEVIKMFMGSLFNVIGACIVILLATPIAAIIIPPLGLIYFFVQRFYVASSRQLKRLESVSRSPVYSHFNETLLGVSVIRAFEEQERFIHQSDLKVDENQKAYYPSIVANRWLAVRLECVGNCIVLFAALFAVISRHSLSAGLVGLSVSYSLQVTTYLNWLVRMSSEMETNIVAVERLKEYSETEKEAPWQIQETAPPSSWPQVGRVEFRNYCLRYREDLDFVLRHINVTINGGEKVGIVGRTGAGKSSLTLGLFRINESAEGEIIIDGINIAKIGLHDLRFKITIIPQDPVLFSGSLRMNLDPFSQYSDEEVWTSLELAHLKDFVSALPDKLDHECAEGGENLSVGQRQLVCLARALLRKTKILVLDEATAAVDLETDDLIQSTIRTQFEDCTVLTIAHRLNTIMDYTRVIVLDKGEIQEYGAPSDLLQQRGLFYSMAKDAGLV

CC(C)c1nc(CN(C)C(=O)N[C@H](C(=O)N[C@@H](Cc2ccccc2)C[C@H](O)[C@H](Cc2ccccc2)NC(=O)OCc2cncs2)C(C)C)cs1 [ritonavir]
Effect on ABCC1 vesicular ETGB transport (in words) (ABCC1/MRP1): practically no effect
Plasma concentration in patients [1]: about 1 μM
